According to ChEMBL document CHEMBL3217706, “Identification of CYP1A2 ligands by structure-based and ligand-based virtual screening” (Medchemcomm, 2011):

Tests used:
Cytochrome P450 1A2 = biological target: T1, Cytochrome P450 1A2 (Homo sapiens, UniProt P05177); assay: Inhibition of human recombinant CYP1A2 EROD activity expressed in Escherichia coli JM109 assessed as inhibition of de-ethylation of 7-ethoxyresorufin to resorufin by spectrofluorometric analysis; assay type: ADME
T1 sequence (P05177 whole entry): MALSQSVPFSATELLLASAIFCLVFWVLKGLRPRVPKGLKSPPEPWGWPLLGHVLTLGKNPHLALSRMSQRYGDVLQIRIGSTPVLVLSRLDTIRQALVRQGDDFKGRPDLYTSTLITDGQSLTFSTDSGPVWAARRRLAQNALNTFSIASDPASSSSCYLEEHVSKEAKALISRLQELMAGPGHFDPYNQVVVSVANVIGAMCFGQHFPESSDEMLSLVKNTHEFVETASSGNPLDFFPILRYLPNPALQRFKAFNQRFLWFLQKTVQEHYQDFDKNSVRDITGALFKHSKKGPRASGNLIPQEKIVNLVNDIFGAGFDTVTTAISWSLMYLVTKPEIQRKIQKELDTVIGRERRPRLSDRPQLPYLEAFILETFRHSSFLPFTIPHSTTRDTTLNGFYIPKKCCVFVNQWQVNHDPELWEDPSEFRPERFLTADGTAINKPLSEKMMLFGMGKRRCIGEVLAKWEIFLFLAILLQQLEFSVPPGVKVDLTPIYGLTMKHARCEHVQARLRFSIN

CYP1A2 = biological target: T2, CYP1A2 (Homo sapiens, UniProt P05177); assay: Inhibition of human recombinant CYP1A2 EROD activity expressed in Escherichia coli JM109 assessed as inhibition of de-ethylation of 7-ethoxyresorufin to resorufin at 0.3 uM by spectrofluorometric analysis; assay type: ADME; details: recombinant human CYP1A2 expressed in Escherichia coli JM109, probe 7-ethoxyresorufin
T2 sequence (P05177 whole entry): T1 sequence (P05177 whole entry)

Which results are given for `COc1ccc(Nc2nc(-c3cccs3)cs2)cc1`?
IC50 (Cytochrome P450 1A2): 72 nM; inhibition at 0.3 µM (CYP1A2): > 50%

`Cc1nn(-c2ccccc2)c2nc(C(F)(F)F)cc(C(F)(F)F)c12` was tested. Which IC50 (Cytochrome P450 1A2) did it give?
Its IC50 is 231 nM.

And the inhibition at 0.3 µM (CYP1A2)?
Its inhibition at 0.3 µM is greater than 50%.

Which results are given for `COc1ccc(C=O)cc1COc1c(Cl)cc(Cl)cc1Cl`?
IC50 (Cytochrome P450 1A2): 57 nM; inhibition at 0.3 µM (CYP1A2): > 50%

Which results are given for `N#CC1=C(N)Oc2c(ccc3ccccc23)C1c1ccc2c(c1)OCC2` (centres undefined)?
IC50 (Cytochrome P450 1A2): 112 nM; inhibition at 0.3 µM (CYP1A2): > 50%

For `C(=N\n1cnnc1)/c1ccc(-c2cccc3ccccc23)o1`, which IC50 (Cytochrome P450 1A2) is on record?
Its IC50 is 48 nM.

And the inhibition at 0.3 µM (CYP1A2)?
Its inhibition at 0.3 µM is greater than 50%.

What does the source list for `CN1C(=O)/C(=C2\NC(=S)NC2=O)c2cc(Br)ccc21`?
IC50 (Cytochrome P450 1A2): 49 nM; inhibition at 0.3 µM (CYP1A2): > 50%

`Brc1ccc2c3c(cccc13)-c1nc3ccccc3nc1-2` was tested. Which IC50 (Cytochrome P450 1A2) did it give?
Its IC50 is 22 nM.

What about the inhibition at 0.3 µM (CYP1A2) of the same compound?
The inhibition at 0.3 µM was greater than 50%.

How did the IC50 (Cytochrome P450 1A2) turn out when `O=[N+]([O-])c1ccc2nc3c(nc2c1)-c1cccc2cccc-3c12` was run?
The IC50 was 21 nM.

What about the inhibition at 0.3 µM (CYP1A2) of the same compound?
The inhibition at 0.3 µM was greater than 50%.

Which results are given for `Cn1c(=O)cc2c3c(c(N)ccc31)C(=O)c1ccccc1-2`?
IC50 (Cytochrome P450 1A2): 16 nM; inhibition at 0.3 µM (CYP1A2): > 50%

How did the inhibition at 0.3 µM (CYP1A2) turn out when `O=c1cc(-c2ccccc2)oc2c1ccc1ccccc12` [ALPHA-NAPHTHOFLAVONE] was run?
The inhibition at 0.3 µM was greater than 50%.
